Here are results for 44 compounds from patent US11117901B2, “Substituted pyrazolo[4,3-h]quinazolines as choline kinase inhibitors” (NERVIANO MEDICAL SCIENCES S.R.L., priority 2017, dated 2021).

For orientation: IC50 means the point on the concentration scale where inhibition reaches its midpoint.

Assay [1] deals with T1, hChoKβ FL (Homo sapiens, UniProt Q9Y259).
T1 construct: hChoKβ full length (FL), corresponding to aminoacids 2-395; GST (N, cleaved yes); PreScission Protease recognition site (N); made in house; host or cells: Escherichia coli BL21pLysS (DE3)
In words: Biochemical kinase inhibition assay (Kinase-Glo luminescent) on hChoKβ FL. The following applies: recombinant hChoKβ FL 30 nM, ATP 5 μM, choline 20 μM, 60 min rt; read-out: ChoKβ IC50. Put shortly:
(§1)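 Kinase-Glo residual-ATP luminescence with in-house E. coli-expressed, tag-cleaved enzymes: Δ49N-hChoKα 2.2 nM with 5 μM choline; hChoKβ FL 30 nM with 20 μM choline. Both used 5 μM ATP, 60 min at room temperature, 1% DMSO, pH 7.5 Hepes buffer. IC50 from 4-parameter fits of ten 3-fold dilutions from 10 μM.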
On the technique in general: Kinase-Glo reads ATP consumption through a luciferase reaction.

Assay [2] addresses T2, Δ49N-hChoKα (Homo sapiens, UniProt P35790).
T2 construct: cDNA fragment 362-1534, corresponding to aminoacids 50 457; GST (N, cleaved yes); PreScission Protease recognition site (N); made in house; host or cells: Escherichia coli BL21pLysS (DE3)
The assay is described as follows: Biochemical kinase inhibition assay (Kinase-Glo luminescent) on Δ49N-hChoKα. The conditions noted are these: recombinant Δ49N-hChoKα 2.2 nM, ATP 5 μM, choline 5 μM, 60 min rt; read-out: ChoKα IC50. The gist of the method:
as §1

T2 sequence (P35790 50-439 isoform P35790-2): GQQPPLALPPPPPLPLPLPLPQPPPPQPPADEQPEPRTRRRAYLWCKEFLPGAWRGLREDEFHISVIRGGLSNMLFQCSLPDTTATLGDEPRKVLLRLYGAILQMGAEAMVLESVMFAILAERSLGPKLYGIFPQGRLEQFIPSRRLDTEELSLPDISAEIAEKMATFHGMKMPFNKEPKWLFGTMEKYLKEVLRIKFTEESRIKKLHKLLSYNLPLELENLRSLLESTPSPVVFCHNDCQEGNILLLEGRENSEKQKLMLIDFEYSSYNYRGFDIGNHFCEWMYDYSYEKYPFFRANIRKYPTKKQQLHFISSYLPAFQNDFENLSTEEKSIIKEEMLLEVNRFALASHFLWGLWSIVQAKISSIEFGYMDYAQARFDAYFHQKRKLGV
T1 sequence (Q9Y259 2-395): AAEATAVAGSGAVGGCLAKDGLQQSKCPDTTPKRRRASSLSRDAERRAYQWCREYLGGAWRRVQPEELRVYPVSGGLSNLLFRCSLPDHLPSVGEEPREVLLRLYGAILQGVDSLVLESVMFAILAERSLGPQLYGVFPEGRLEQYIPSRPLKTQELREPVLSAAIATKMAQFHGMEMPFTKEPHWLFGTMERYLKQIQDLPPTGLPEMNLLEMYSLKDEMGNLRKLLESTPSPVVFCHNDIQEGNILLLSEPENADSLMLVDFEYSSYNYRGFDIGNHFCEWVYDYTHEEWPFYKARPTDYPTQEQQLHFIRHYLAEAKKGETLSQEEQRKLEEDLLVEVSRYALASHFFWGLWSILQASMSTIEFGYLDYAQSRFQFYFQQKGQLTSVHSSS

With `CC1(C)Cc2cnc(N)nc2-c2[nH]nc(C(=O)Nc3nc(CN4CCC(N5CCCCC5)CC4)cs3)c21` [compound 143], the figures for the IC50 in assay [1] and in assay [2] were 2160 nM and 142 nM, respectively.

As to `CC1(C)Cc2cnc(N)nc2-c2[nH]nc(C(=O)Nc3ncc[nH]3)c21` [compound 144], the IC50 was 688 nM in assay [1] and 546 nM in assay [2].

As to `CC1(C)Cc2cnc(N)nc2-c2[nH]nc(C(=O)Nc3nc(CC(=O)NC4CCN(C5CCCCC5)CC4)cs3)c21` [compound 145], the IC50 was 928 nM in assay [1] and 11 nM in assay [2].

As to `CN(C)C1CCN(C(=O)Cc2cccc(NC(=O)c3n[nH]c4c3C(C)(C)Cc3cnc(N)nc3-4)c2)CC1` [compound 146], the results for the concentration for half-maximal inhibition (IC50) in assay [1] and in assay [2] were 551 nM and 65 nM, respectively.

On to `CN(C)[C@@H]1CCN(Cc2csc(NC(=O)c3nn(C)c4c3C(C)(C)Cc3cnc(N)nc3-4)n2)C1` [compound 147], for which the IC50 in assay [1] was greater than 10000 nM; in assay [2], 594 nM.

Consider `CN(C)[C@@H]1CCN(Cc2csc(NC(=O)c3n[nH]c4c3C(C)(C)Cc3cnc(N)nc3-4)n2)C1` [compound 148], for which the IC50 in assay [1] was 1100 nM; in assay [2], 357 nM.

`CC1(C)Cc2cnc(N)nc2-c2[nH]nc(C(=O)Nc3cccc(CC(=O)N4CCC(N)CC4)c3)c21` [compound 149]: the IC50 in assay [1] was 3210 nM; in assay [2], 164 nM.

Take `CC1(C)Cc2cnc(N)nc2-c2[nH]nc(C(=O)Nc3nc(CC(=O)N4CCN(C5CCCCC5)CC4)cs3)c21` [compound 150]: the IC50 in assay [1] came to 352 nM; in assay [2], 6 nM.

Turning to `CN1CCc2nc(NC(=O)c3n[nH]c4c3C(C)(C)Cc3cnc(N)nc3-4)sc2C1` [compound 151], the half-maximal inhibitory concentration (IC50) in assay [1] stood at 5340 nM; in assay [2], 174 nM.

In the case of `CC1(C)Cc2cnc(N)nc2-c2[nH]nc(C(=O)Nc3nc(CN4CCC(N)CC4)cs3)c21` [compound 152], the IC50 in assay [1] is greater than 10000 nM; in assay [2] it was 534 nM.

Regarding `CC1(C)Cc2cnc(N)nc2-c2[nH]nc(C(=O)Nc3nc(CC(=O)N4CC[C@@H]([N+](C)(C)[O-])C4)cs3)c21` [compound 154], the values for the half-inhibitory concentration (IC50) in assay [1] and in assay [2] were 564 nM and 14 nM, respectively.

For the compound `Cc1csc(NC(=O)c2nn(C)c3c2C(C)(C)Cc2cnc(N)nc2-3)n1` [compound 155], the concentration for half-maximal inhibition (IC50) in assay [1] is greater than 10000 nM; in assay [2], 629 nM.

Consider `CC1(C)Cc2cnc(N)nc2-c2[nH]nc(C(=O)Nc3nc(CNC4CCN(C5CCCCC5)CC4)cs3)c21` [compound 156], for which the results for the 50% inhibitory concentration (IC50) in assay [1] and in assay [2] were 249 nM and 3 nM, respectively.

Regarding `CC1(C)Cc2cnc(N)nc2-c2[nH]nc(C(=O)Nc3nc(COC4CCN(C5CCCCC5)CC4)cs3)c21` [compound 157], the 50% inhibitory concentration (IC50) turned out to be 292 nM in assay [1] and 6 nM in assay [2].

As to `CC1(C)Cc2cnc(N)nc2-c2[nH]nc(C(=O)Nc3nc(CC(=O)N4CCN(c5ccccc5)CC4)cs3)c21` [compound 160], the IC50 stood at 2210 nM in assay [1] and 25 nM in assay [2].

As for `CC1(C)Cc2cnc(N)nc2-c2[nH]nc(C(=O)N3CCN(c4ccccc4)CC3)c21` [compound 161], the figures for the half-inhibitory concentration (IC50) in assay [1] and in assay [2] were greater than 10000 nM and 507 nM, respectively.

For `CC1(C)Cc2cnc(N)nc2-c2[nH]nc(C(=O)NCc3ccc(C(=O)N4CCC(N5CCCCC5)CC4)cc3)c21` [compound 165], the IC50 worked out at 69 nM in assay [1] and 180 nM in assay [2].

Consider `CN1CCC(NC(=O)c2ccc(CNC(=O)c3n[nH]c4c3C(C)(C)Cc3cnc(N)nc3-4)cc2)CC1` [compound 166], for which the results for the IC50 in assay [1] and in assay [2] were 134 nM and 136 nM, respectively.

`CC1CCN([C@H]2CC[C@H](OCc3csc(NC(=O)c4n[nH]c5c4C(C)(C)Cc4cnc(N)nc4-5)n3)CC2)CC1` [compound 170]: the IC50 in assay [1] worked out at 887 nM; in assay [2] it was 17 nM.

On to `Cc1csc(NC(=O)c2nn(CCO)c3c2C(C)(C)Cc2cnc(N)nc2-3)n1` [compound 182], for which the 50% inhibitory concentration (IC50) in assay [1] is greater than 10000 nM; in assay [2], 458 nM.

For the compound `CC1(C)Cc2cnc(N)nc2-c2[nH]nc(C(=O)Nc3nc(C(F)(F)C(=O)N4CCC(N5CCCCC5)CC4)cs3)c21` [compound 183], the IC50 was determined as 654 nM in assay [1] and 13 nM in assay [2].

`CC1(C)Cc2cnc(N)nc2-c2[nH]nc(C(=O)Nc3nc(COC4CCN(C5CCC(F)(F)CC5)CC4)cs3)c21` [compound 189]: the figures for the IC50 in assay [1] and in assay [2] were 1560 nM and 31 nM, respectively.

For the compound `CC1(C)CCC(N2CCC(OCc3csc(NC(=O)c4n[nH]c5c4C(C)(C)Cc4cnc(N)nc4-5)n3)CC2)CC1` [compound 190], the IC50 was 546 nM in assay [1] and 8 nM in assay [2].

As for `CC1CCN(C2CCN(C(=O)C(F)(F)c3csc(NC(=O)c4n[nH]c5c4C(C)(C)Cc4cnc(N)nc4-5)n3)CC2)CC1` [compound 191], the values for the half-inhibitory concentration (IC50) in assay [1] and in assay [2] were 303 nM and 7 nM, respectively.

On to `CC1(C)Cc2cnc(N)nc2-c2[nH]nc(C(=O)Nc3nc(COC4CCN(C5CCCCCC5)CC4)cs3)c21` [compound 209], for which the concentration for half-maximal inhibition (IC50) in assay [1] is 230 nM; in assay [2] it was 5 nM.

As for `CC1CCN(C2CCN(C(=O)Cc3csc(NC(=O)c4c5c(nn4C)-c4nc(N)ncc4CC5(C)C)n3)CC2)CC1` [compound 211], the half-inhibitory concentration (IC50) in assay [1] is greater than 10000 nM; in assay [2], 108 nM.

For the compound `CC1(C)Cc2cnc(N)nc2-c2[nH]nc(C(=O)Nc3nc(COC4CCN(CC5CCCCC5)CC4)cs3)c21` [compound 212], the IC50 was found to be 457 nM in assay [1] and 8 nM in assay [2].

In the case of `CC1(C)Cc2cnc(N)nc2-c2[nH]nc(C(=O)Nc3nc(COC4CCN(Cc5ccccc5)CC4)cs3)c21` [compound 213], the IC50 in assay [1] was determined as 450 nM; in assay [2] it was 16 nM.

As for `Cn1nc(C(=O)Nc2nc(COC3CCN(C4CCCCCC4)CC3)cs2)c2c1-c1nc(N)ncc1CC2(C)C` [compound 217], the concentration for half-maximal inhibition (IC50) in assay [1] came out at 3550 nM; in assay [2], 18 nM.

As to `CC1(C)CCN(C2CCN(C(=O)Cc3csc(NC(=O)c4n[nH]c5c4C(C)(C)Cc4cnc(N)nc4-5)n3)CC2)CC1` [compound 218], the results for the IC50 in assay [1] and in assay [2] were 254 nM and 2 nM, respectively.

As for `CC1(C)CCCN(C2CCN(C(=O)Cc3csc(NC(=O)c4n[nH]c5c4C(C)(C)Cc4cnc(N)nc4-5)n3)CC2)C1` [compound 219], the 50% inhibitory concentration (IC50) was 296 nM in assay [1] and 2 nM in assay [2].

Regarding `CC(C)=CC(=O)CC(C)(C)NC(=O)Cc1csc(NC(=O)c2n[nH]c3c2C(C)(C)Cc2cnc(N)nc2-3)n1` [compound 220], the IC50 in assay [1] was 1380 nM; in assay [2] it was 30 nM.

In the case of `CC1(C)CCC(N2CCC(OCc3csc(NC(=O)c4n[nH]c5c4C(C)(C)Cc4cnc(N)nc4-5)n3)CC2)CC1` [compound 221], the IC50 is 782 nM in assay [1] and 10 nM in assay [2].

`CC1(C)Cc2cnc(N)nc2-c2[nH]nc(C(=O)Nc3nc(CC(=O)N4CCC(N5CCCC(F)(F)C5)CC4)cs3)c21` [compound 222]: the results for the half-maximal inhibitory concentration (IC50) in assay [1] and in assay [2] were 1650 nM and 10 nM, respectively.

Consider `CC1(C)Cc2cnc(N)nc2-c2[nH]nc(C(=O)Nc3nc(COC4CCN(C5CCCCCC5)CC4)cs3)c21` [compound 223], for which the 50% inhibitory concentration (IC50) in assay [1] is 184 nM; in assay [2], 4 nM.

On to `CC1CCCN(C2CCN(C(=O)Cc3csc(NC(=O)c4n[nH]c5c4C(C)(C)Cc4cnc(N)nc4-5)n3)CC2)C1` (stereo not shown) [compound 224], for which the half-maximal inhibitory concentration (IC50) came out at 213 nM in assay [1] and 5 nM in assay [2].

With `CC1CCN(C2CCN(C(=O)Cc3csc(NC(=O)c4nn(C)c5c4CC(C)(C)c4cnc(N)nc4-5)n3)CC2)CC1` [compound 225], the figures for the IC50 in assay [1] and in assay [2] were 2260 nM and 9 nM, respectively.

With `CC1(OCc2csc(NC(=O)c3n[nH]c4c3C(C)(C)Cc3cnc(N)nc3-4)n2)CCN(C2CCCCCC2)CC1` [compound 226], the IC50 in assay [1] was 376 nM; in assay [2] it was 20 nM.

As for `CC1CCN(C2(C)CCN(C(=O)Cc3csc(NC(=O)c4n[nH]c5c4C(C)(C)Cc4cnc(N)nc4-5)n3)CC2)CC1` [compound 227], the values for the IC50 in assay [1] and in assay [2] were 26 nM and 2 nM, respectively.

As for `CC1CCN(C2CCN(C(=O)c3ccc4nc(NC(=O)c5n[nH]c6c5C(C)(C)Cc5cnc(N)nc5-6)sc4c3)CC2)CC1` [compound 228], the 50% inhibitory concentration (IC50) was 963 nM in assay [1] and 9 nM in assay [2].

For the compound `CC1(C)Cc2cnc(N)nc2-c2[nH]nc(C(=O)Nc3nc(CC(=O)N4CCC(N5CCC(F)(F)CC5)CC4)cs3)c21` [compound 229], the figures for the IC50 in assay [1] and in assay [2] were 840 nM and 18 nM, respectively.

Regarding `CC1(C)Cc2cnc(N)nc2-c2[nH]nc(C(=O)Nc3nc(COC4CCN(C5CCC6(CC5)CC6)CC4)cs3)c21` [compound 230], the IC50 in assay [1] turned out to be 594 nM; in assay [2], 24 nM.

In the case of `CC1CCN(C2CCN(C(=O)Cc3csc(NC(=O)c4n[nH]c5c4CC(C)(C)c4cnc(N)nc4-5)n3)CC2)CC1` [compound 231], the IC50 was determined as 104 nM in assay [1] and 3 nM in assay [2].

For `CC1(C)Cc2c(C(=O)Nc3nc(COC4CCN(C5CCCCCC5)CC4)cs3)n[nH]c2-c2nc(N)ncc21` [compound 232], the IC50 turned out to be 146 nM in assay [1] and 8 nM in assay [2].
